{
  "source": "patent US20120277211A1",
  "about": "“METHODS AND COMPOSITIONS FOR THE TREATMENT OF PSYCHOTIC DISORDERS THROUGH THE IDENTIFICATION OF THE SULT4A1-1 HAPLOTYPE” (priority 2009, published 2012)",
  "key": {"[1]": {"tested_on": "Caucasian schizophrenia patients", "experiment": "CATIE: time to discontinuation for all causes by SULT4A1-1 status", "assay_type": "in vivo, human", "excerpt": "The primary endpoint for the CATIE study was time to discontinuation for all causes (Lieberman et al., 2005). Thus the inventors evaluated the effect of SULT41-1 status on this important parameter."}, "[2]": {"tested_on": "African American schizophrenia patients", "experiment": "CATIE: change in total PANSS (LOCF) by SULT4A1-1 haplotype status, African Americans", "assay_type": "in vivo, human", "conditions": "for Number of individuals with change in total PANSS ≦−20% (responders) / Number of individuals with change in total PANSS ≧−20% (non-responders): LOCF", "protocol": "The design of the CATIE study has been described in detail by others (Lieberman et al., 2005; Stroup et al., 2003). […] A total of 738 subjects consented to provide DNA for genetic study. […] Retrospective genetic analyses, judged to be exempt from human studies requirements by an IRB, were conducted in the current study. All tested patients were studied using well established clinical endpoints comparing baseline, intermediate, and last observation carried forward (LOCF) for the PANSS scores using CATIE data. […] To remove time on drug as a variable for the CATIE trial, analysis was limited to only those patients who were randomized to a different drug following the initial washout period (drug switchers)."}, "[3]": {"tested_on": "Caucasian schizophrenia patients", "experiment": "CATIE: hospitalization due to exacerbation of psychosis by SULT4A1-1 status", "assay_type": "in vivo, human", "excerpt": "To assess if SULT4A1-1 status impacts the risk of hospitalization in Caucasians, the inventors assigned SULT4A1-1 status to each CATIE subject and evaluated hospitalization events due to exacerbation of psychosis. For this analysis, the inventors assigned a dichotomous value (positive or negative) for hospitalization status to subjects in each phase of the trial based on only the first hospitalization event for a given patient in that phase. Patients participating in Phases 1, 2, and/or 3 were included in the totals for the appropriate drug.\nA Kaplan-Meier survival analysis was performed to determine whether there was a difference between the survival (hospitalization) rates for the SULT4A1-1 negative and SULT4A1-1 positive patient populations treated with each of the atypical antipsychotics. Survival plots model the fraction of the population that survived (i.e., no hospitalization event) as a function of time."}, "schizophrenia patients [4]": {"tested_on": "schizophrenia patients", "experiment": "CATIE: months of successful treatment measured by the CGI scale (TMSUCC1)", "assay_type": "in vivo, human", "excerpt": "The CATIE clinical data set included Clinical Global Impression (CGI) Scale, an observer-provided assessment of the psychiatric health of the patient (Stroup et al., 2003; Guy 1976). Patients are rated with the CGI Scale from 1 to 7, with higher scores indicating greater severity of illness. The CATIE study provided a response variable that measured the time (in months) of successful treatment as measured by the CGI scale (“TMSUCC1” in the CATIE data)."}, "schizophrenia patients [5]": {"tested_on": "schizophrenia patients", "conditions": "Phase II; for Responders: decrease PANSS ≧20%, LOCF"}, "schizophrenia patients [6]": {"tested_on": "schizophrenia patients", "text": "For the analyses shown in Tables 22-24, SULT4A1-1 haplotype status was assigned as describe in Example 3, and standard statistical survival analysis using Cox's proportional hazards model was used to determine the relative risk (hazard) of discontinuing drug use. The Hazard Ratio (HR) measures the risk of an event (in this case, switching or discontinuation from the drug) relative to patient exposure or status (in this case, SULT4A1-1 positive status).\nAs describe in Example 11, Hazard Ratio (HR) measures the risk of an event (in this case, switching or discontinuation from the drug) relative to patient exposure or status (in this case, SULT4A1-1 status)."}, "[7]": {"tested_on": "unsegmented patient populations", "conditions": "cited from earlier work"}, "[8]": {"conditions": "SULT4A1-1 negative risperidone / SULT4A1-1 negative all other drugs"}, "[9]": {"conditions": "Unsegmented risperidone / Unsegmented all other drugs"}},
  "note": "Like-named read-outs stand apart in the source and are kept apart here. Marks after values point to notes of the source that are not given here.",
  "data": [
    {"molecule": "Cc1nc2n(c(=O)c1CCN1CCC(c3noc4cc(F)ccc34)CC1)CCCC2", "note": "[Risperidone]", "values": [
      {"measurement": "Time to discontinuation, mean", "setting": "[1]; SULT4A1-1 negative", "value": 11.3, "unit": "Months"},
      {"measurement": "Time to discontinuation, mean", "setting": "[1]; SULT4A1-1 positive", "value": "8.0*** Months"},
      {"measurement": "Number of individuals with change in total PANSS ≦−20% (responders)", "setting": "[2]; SULT4A1-1 negative", "value": 7},
      {"measurement": "Number of individuals with change in total PANSS ≧−20% (non-responders)", "setting": "[2]; SULT4A1-1 negative", "value": 34},
      {"measurement": "Responders", "setting": "[2]; SULT4A1-1 positive", "value": 60, "unit": "%"},
      {"measurement": "Number of individuals with change in total PANSS ≦−20% (responders)", "setting": "[2]; SULT4A1-1 positive", "value": 3},
      {"measurement": "Number of individuals with change in total PANSS ≧−20% (non-responders)", "setting": "[2]; SULT4A1-1 positive", "value": 2},
      {"measurement": "HOSP, number of patients hospitalized", "setting": "[3]; SULT4A1-1 negative", "value": 16},
      {"measurement": "HOSP, rate of hospitalization", "setting": "[3]; SULT4A1-1 negative", "value": 13, "unit": "%"},
      {"measurement": "HOSP, number of patients hospitalized", "setting": "[3]; SULT4A1-1 positive", "value": 4},
      {"measurement": "HOSP, rate of hospitalization", "setting": "[3]; SULT4A1-1 positive", "value": 11.1, "unit": "%"},
      {"measurement": "HOSP, rate of hospitalization", "setting": "[3]; Unsegmented", "value": 12.6, "unit": "%"},
      {"measurement": "HOSP, number of patients hospitalized", "setting": "[3]; Unsegmented, Phases 1, 2 and/or 3, first event", "value": 20},
      {"measurement": "Kaplan-Meier: difference between survival (no hospitalization) rates of SULT4A1-1 negative and positive patients", "setting": "[3]; per drug", "value": "not statistically significant"},
      {"measurement": "Length of successful treatment (CGI Months), Mean", "setting": "schizophrenia patients [4]; SULT4A1-1 negative", "value": 6.88, "unit": "Months"},
      {"measurement": "Length of successful treatment (CGI Months), Mean", "setting": "schizophrenia patients [4]; SULT4A1-1 positive", "value": 1.76, "unit": "Months"},
      {"measurement": "Length of successful treatment (CGI Months), Mean", "setting": "schizophrenia patients [4]; Unsegmented", "value": 5.79, "unit": "Months"},
      {"measurement": "% Responders", "setting": "schizophrenia patients [5]; SULT4A1-1 Negative", "value": 33.3, "unit": "%"},
      {"measurement": "Nonresponders", "setting": "schizophrenia patients [5]; SULT4A1-1 Negative", "value": 8},
      {"measurement": "Responders", "setting": "schizophrenia patients [5]; SULT4A1-1 Negative", "value": 4},
      {"measurement": "% Responders", "setting": "schizophrenia patients [5]; SULT4A1-1 Positive", "value": 0, "unit": "%"},
      {"measurement": "Nonresponders", "setting": "schizophrenia patients [5]; SULT4A1-1 Positive", "value": 1},
      {"measurement": "Responders", "setting": "schizophrenia patients [5]; SULT4A1-1 Positive", "value": 0},
      {"measurement": "HR, all-cause discontinuation", "setting": "schizophrenia patients [6]; [8]", "value": "0.79^a"},
      {"measurement": "HR, discontinuation due to lack of efficacy", "setting": "schizophrenia patients [6]; [8]", "value": "0.88^a"},
      {"measurement": "HR, all-cause discontinuation", "setting": "schizophrenia patients [6]; SULT4A1-1 positive risperidone / SULT4A1-1 positive all other drugs", "value": "1.48^a"},
      {"measurement": "HR, all-cause discontinuation", "setting": "schizophrenia patients [6]; [9]", "value": "0.91^a"},
      {"measurement": "HR, discontinuation due to lack of efficacy", "setting": "schizophrenia patients [6]; [9]", "value": "1.09^a"},
      {"measurement": "Effect Size vs. FGA", "setting": "[7]; first generation antipsychotics, Davis et al. (2003)", "value": "−0.25"},
      {"measurement": "Effect Size vs. Placebo", "setting": "[7]; meta-analysis, Leucht et al. (2009), negative = greater reduction in PANSS", "value": "−0.59"},
      {"measurement": "Mean difference in total PANSS score between olanzapine and labelled drug, Meta-analysis", "setting": "[7]; unsegmented populations, Leucht et al. (2009)", "value": "−1.9"}
    ]}
  ]
}
